Test results from patent publication US20100267635A1, “USE OF PROTEASE INHIBITORS AND GRF MOLECULES IN COMBINATION THERAPY” (THERATECHONOLGIES INC., priority 2009, published 2010).

What was measured:
[1] = Two-way crossover drug interaction study: plasma ritonavir PK with (Treatment A) and without (Treatment B) TH9507; assay type: in vivo, human
Procedure: (§1) 2 ml of TH9507 (1 mg/ml injectable solution) was administered by subcutaneous injection under fasting conditions once daily for 7 consecutive days (daily dose of 2 mg TH9507).
(§2) N=32 healthy adult (male and female) subjects were enrolled. Dosing occurred in two groups.
(§3) PK/statistics: PK parameters were calculated using standard noncompartmental approaches.
(§4) The 90% CIs for the Treatment A/Treatment B LSM ratios for AUC0-t.

[2] = Plasma TH9507 PK (ELISA) on day 6 in the ritonavir interaction study; assay type: in vivo; conditions: both sexes, human, sc, 2 mg s.c. once daily
Procedure: as §1, §2, §3

CYP3A = assay: Impact of TH9507 on CYP3A activity, concluded from the ritonavir PK interaction study; assay type: in vivo, human; conditions: 2 mg TH9507 s.c. days 1 to 7, ritonavir as probe
From the text: as §4

SMILES	Cmax ([1]; both sexes, human, plasma, oral, 100 mg) [ng/mL]	AUC(0-inf) ([1]; both sexes, human, plasma, oral, 100 mg, read-out: AUC0-inf Treatment B) [ng·h/mL]	AUC(0-t) ([1]; both sexes, human, plasma, oral, 100 mg, read-out: AUC0-t Treatment B) [ng·h/mL]	half-life ([1]; both sexes, human, plasma, oral, 100 mg, read-out: T1/2 Treatment B (converted)) [min]	Tmax ([1]; both sexes, human, plasma, oral, 100 mg, read-out: Tmax Treatment B) [h]	Tmax ([1]; both sexes, human, plasma, oral, read-out: Tmax Treatment A) [h]	T1/2 Treatment A ([1]; plasma ritonavir, with TH9507, arithmetic mean (% CV))	half-life ([2]; arithmetic mean) [min]	AUC(0-inf) ([2]; geometric mean) [ng·h/mL]	AUC(0-t) ([2]; geometric mean) [ng·h/mL]	Cmax ([2]; geometric mean) [ng/mL]	Tmax ([2]; median) [min]	impact on CYP3A activity (CYP3A)
CC(C)c1nc(CN(C)C(=O)N[C@H](C(=O)N[C@@H](Cc2ccccc2)C[C@H](O)[C@H](Cc2ccccc2)NC(=O)OCc2cncs2)C(C)C)cs1 [Ritonavir, 1,3-thiazol-5-ylmethyl N-[(2S,3S,5S)-3-hydroxy-5-[(2S)-3-methyl-2-{[methyl({[2-(propan-2-yl)-1,3-thiazol-4-yl]methyl})carbamoyl]amino}butanamido]-1,6-diphenylhexan-2-yl]carbamate]	453	3800	3720	376	4.5	4.5	5.72 (23.0) h						
CC/C=C/CC(=O)N[C@@H](Cc1ccc(O)cc1)C(=O)N[C@@H](C)C(=O)N[C@@H](CC(=O)O)C(=O)N[C@@H](C)C(=O)N[C@H](C(=O)N[C@@H](Cc1ccccc1)C(=O)N[C@H](C(=O)N[C@@H](CC(N)=O)C(=O)N[C@@H](CO)C(=O)N[C@@H](Cc1ccc(O)cc1)C(=O)N[C@@H](CCCNC(=N)N)C(=O)N[C@@H](CCCCN)C(=O)N[C@H](C(=O)N[C@@H](CC(C)C)C(=O)NCC(=O)N[C@@H](CCC(N)=O)C(=O)N[C@@H](CC(C)C)C(=O)N[C@@H](CO)C(=O)N[C@@H](C)C(=O)N[C@@H](CCCNC(=N)N)C(=O)N[C@@H](CCCCN)C(=O)N[C@@H](CC(C)C)C(=O)N[C@@H](CC(C)C)C(=O)N[C@@H](CCC(N)=O)C(=O)N[C@@H](CC(=O)O)C(=O)N[C@H](C(=O)N[C@@H](CCSC)C(=O)N[C@@H](CO)C(=O)N[C@@H](CCCNC(=N)N)C(=O)N[C@@H](CCC(N)=O)C(=O)N[C@@H](CCC(N)=O)C(=O)NCC(=O)N[C@@H](CCC(=O)O)C(=O)N[C@@H](CO)C(=O)N[C@@H](CC(N)=O)C(=O)N[C@@H](CCC(N)=O)C(=O)N[C@@H](CCC(=O)O)C(=O)N[C@@H](CCCNC(=N)N)C(=O)NCC(=O)N[C@@H](C)C(=O)N[C@@H](CCCNC(=N)N)C(=O)N[C@@H](C)C(=O)N[C@@H](CCCNC(=N)N)C(=O)N[C@@H](CC(C)C)C(N)=O)[C@@H](C)CC)C(C)C)[C@@H](C)O)[C@@H](C)CC [TH9507, (hexenoyl trans-3)hGRF(1-44)NH2]								6.6	0.79	0.657	2.7	9	not significant
